# Data as given in PMC3600082 (Journal of medicinal chemistry, 2013).
# Entries after “also recorded” stand apart in the source; their conditions may differ.
# Experiments:
# [1] = system: Gag CA-SP1 cleavage in NL4-3/V370A; assay: Anti-HIV-1 maturation assay; type: cell-based; settings: virus produced by 293T cells in presence of compound; Western blot
# [2] = system: Gag CA-SP1 cleavage in wild type NL4-3; settings: virus produced by 293T cells in presence of compound; Western blot
# [3] = system: HIV-1 NL4-3 Env-mediated cell-cell fusion; assay: Fusion assay; type: cell-based; settings: COS cells expressing Env mixed with TZM-bl cells; luciferase
# [4] = system: BVM-R HIV-1 variants (V370Δ, V370A, V362I, T371Δ); assay: Multi-cycle viral replication in MT4 cell assay, panel of BVM-R variants; type: cell-based; settings: for sensitivity of BVM-R viruses to the compound: BVM-R variants
# [5] = system: HIV-1 NL4-3; settings: relative to compound 1; cited from earlier work
# [6] = system: Gag CA-SP1 cleavage in NL4-3/V362I; assay: Anti-HIV-1 maturation assay; type: cell-based; settings: virus produced by 293T cells in presence of compound; Western blot
# [7] = system: NL4-3/V370A; assay: Multi-cycle viral replication in MT4 cell assay; type: cell-based, HIV-1; settings: relative to compound 1
Compound,"inhibition of Gag CA-SP1 cleavage (p25 accumulation), NL4-3/V370A [1]","inhibition of Gag CA-SP1 cleavage (p25 accumulation), wild type NL4-3 [2]",inhibition of HIV-1 entry / Env-mediated cell-cell fusion [3],sensitivity of BVM-R viruses to the compound [4],increase in anti-HIV-1 maturation activity [5],"inhibition of Gag CA-SP1 cleavage (p25 accumulation), NL4-3/V362I [6]",fold more potent than 1 against four BVM-R viruses ([4]; relative to compound 1),fold more potent than 1 against the replication of NL4-3/V370A [7]
"C=C(C)[C@@H]1CC[C@]2(C(=O)O)CC[C@]3(C)[C@H](CC[C@@H]4[C@@]5(C)CC[C@H](OC(=O)CC(C)(C)C(=O)O)C(C)(C)[C@@H]5CC[C@]43C)[C@@H]12 [Compound 1, 3-O-(3’,3’-dimethylsuccinyl)-betulinic acid]",did not inhibit the cleavage of Gag CA-SP1,interfered with the cleavage of Gag CA-SP1,do not inhibit HIV-1 entry,not sensitive,–,–,–,–
"C=C(C)[C@@H]1CC[C@]2(C(=O)N3CCN(CCCCC(=O)O)CC3)CC[C@]3(C)[C@H](CC[C@@H]4[C@@]5(C)CC[C@H](OC(=O)CC(C)(C)C(=O)O)C(C)(C)[C@@H]5CC[C@]43C)[C@@H]12 [Compound 30, N-[3β-O-(3′,3′-dimethylsuccinyl)lup-20(29)-en-28-oyl]-5-piperazinepentanoic acid]",–,–,–,ineffective; also recorded: not effective,greater than 10 fold,–,–,–
"C=C(C)[C@@H]1CC[C@]2(C(=O)NCCCCCCCCC(=O)N[C@@H](CCC(N)=O)C(=O)OC)CC[C@]3(C)[C@H](CC[C@@H]4[C@@]5(C)CC[C@H](OC(=O)CC(C)(C)C(=O)O)C(C)(C)[C@@H]5CC[C@]43C)[C@@H]12 [Compound 6, Methyl N-[N’-[3β-O-(3’,3’-dimethylsuccinyl)-betulinic acid-28-oyl]-9-aminononanoyl]-L-glutaminate]",resulted in accumulation of CA-SP1 (p25),–,do not inhibit HIV-1 entry; also recorded: did not inhibit,sensitive,–,accumulation of p25 was even more pronounced,at least 20 fold,at least 20 fold
